Measurements reported in ChEMBL document CHEMBL1201862, “PubChem BioAssay data set” (2004).
Calls of active or inactive are those of the source.

Assays:
[1] = target: Voltage-dependent T-type calcium channel subunit alpha-1H (Homo sapiens, UniProt O95180); format: functional;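 note: channel activity triggered by adding a high calcium stimulation buffer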
[2] = target: T1, Leucine aminopeptidase (Plasmodium falciparum 3D7, UniProt Q8IL11); experiment: P. falciparum M17LAP inhibitors, primary screen, biochemical, fluorogenic H-Leu-NHMec substrate, 1536-well (AID 1619); format: functional
T1 sequence (Q8IL11 whole entry): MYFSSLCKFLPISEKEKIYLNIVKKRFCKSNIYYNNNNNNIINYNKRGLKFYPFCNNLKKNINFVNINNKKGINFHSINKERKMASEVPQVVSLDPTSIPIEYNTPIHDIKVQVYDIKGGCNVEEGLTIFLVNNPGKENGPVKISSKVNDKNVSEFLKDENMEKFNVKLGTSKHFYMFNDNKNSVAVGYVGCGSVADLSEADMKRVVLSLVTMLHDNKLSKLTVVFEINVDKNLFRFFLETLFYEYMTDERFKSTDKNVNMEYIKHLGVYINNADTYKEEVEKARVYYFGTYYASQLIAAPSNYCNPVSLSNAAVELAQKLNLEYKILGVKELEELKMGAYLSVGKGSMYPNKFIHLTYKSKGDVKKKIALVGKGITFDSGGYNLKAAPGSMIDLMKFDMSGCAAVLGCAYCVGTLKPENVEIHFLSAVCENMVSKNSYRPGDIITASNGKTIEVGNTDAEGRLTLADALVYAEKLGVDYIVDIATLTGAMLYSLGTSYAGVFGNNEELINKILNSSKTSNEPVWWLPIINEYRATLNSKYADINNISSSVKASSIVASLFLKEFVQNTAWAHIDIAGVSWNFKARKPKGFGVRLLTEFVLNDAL

[3] = target: Genome polyprotein (dengue virus type 2, UniProt P29990); experiment: flavivirus cap methylation enzyme inhibition – biochemical, confirmation dose response, primary screen (AID 588689); format: functional
[4] = target: T2, Endoribonuclease toxin MazF (Escherichia coli K-12, UniProt P0AE70); experiment: substrate-only fluorescence increase artefacts – biochemical, single-stranded RNase substrate, counter-screen for MazEF activator project, dose response (AID 588502); format: functional
T2 sequence (P0AE70 whole entry): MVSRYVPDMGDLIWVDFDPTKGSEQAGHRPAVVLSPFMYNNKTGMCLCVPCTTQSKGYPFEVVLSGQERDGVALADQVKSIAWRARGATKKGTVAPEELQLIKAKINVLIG

[5] = target: T2, Endoribonuclease toxin MazF; experiment: activation of MazEF endoribonuclease cleavage – biochemical, fluorescence, single-stranded RNA substrate, uHTS hits, dose response (AID 588481); format: functional
[6] = target: Cytochrome P450 2C9 (Homo sapiens, UniProt P11712)
[7] = target: Induced myeloid leukemia cell differentiation protein Mcl-1 (Homo sapiens, UniProt Q07820); format: functional
[8] = Trypanosoma cruzi growth suppression in host cells – NIH3T3 host cells, beta-gal luminescence, confirmation (AID 2044); format: functional, cell-based;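 note: intracellular parasites grown in NIH/3T3 mouse fibroblasts as host cells; luminescent beta-galactosidase reporter signal from transgenic T. cruzi replicating inside host cells; inhibitors lower the luminescence signal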
[9] = NIH3T3 cell viability loss – ATP luminescence, mouse fibroblasts, counter-screen, dose response (AID 2010); format: functional, cell-based;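 note: cells exposed to compound for about 90 hours before reading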
[10] = target: T3, Cytochrome P450 1A2 (Homo sapiens, UniProt P05177);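 note: PubChem cytochrome P450 panel assay, CYP1A2 panel member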
T3 sequence (P05177 whole entry): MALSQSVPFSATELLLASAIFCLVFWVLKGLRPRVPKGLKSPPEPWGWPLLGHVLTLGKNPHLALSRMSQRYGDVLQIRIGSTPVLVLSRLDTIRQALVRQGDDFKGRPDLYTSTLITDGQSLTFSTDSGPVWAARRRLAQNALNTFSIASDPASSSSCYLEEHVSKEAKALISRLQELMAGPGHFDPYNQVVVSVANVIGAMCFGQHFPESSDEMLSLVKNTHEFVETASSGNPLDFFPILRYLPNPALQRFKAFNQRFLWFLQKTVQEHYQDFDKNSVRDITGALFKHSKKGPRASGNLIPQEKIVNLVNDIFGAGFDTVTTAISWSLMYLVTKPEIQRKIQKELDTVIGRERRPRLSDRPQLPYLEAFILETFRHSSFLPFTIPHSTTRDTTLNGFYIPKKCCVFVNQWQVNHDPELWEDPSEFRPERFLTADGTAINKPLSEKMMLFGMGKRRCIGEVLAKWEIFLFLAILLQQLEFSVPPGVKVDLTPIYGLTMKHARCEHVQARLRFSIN

[11] = Luminescence Cell-Based Dose Retest to Confirm Inhibitors of Cancer Stem Cells. [Related pubchem assays (depositor defined):AID2717, AID2721]; format: functional; details: Homo sapiens
[12] = blockers of bursicon-stimulated LGR2 cAMP reporter – cell-based, HEK293, CRE-luciferase reporter, cherry pick, set 2, dose response (AID 743343); format: functional;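 note: transfected cells were stimulated with diluted bursicon conditioned medium after compound addition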
[13] = blockade of melanocortin 4 receptor signaling – cell-based, plate reader, cherry pick, counter-screen for LGR2 antagonist project, dose response (AID 743444); format: functional;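 note: transfected HEK 293 cells stimulated with alpha-MSH peptide; potency of inhibitors of the alpha-MSH evoked signal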
[14] = target: Cytochrome P450 3A4 (Homo sapiens, UniProt P08684);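 note: CYP3A4 tested as one member of a cytochrome P450 panel screen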
[15] = target: Cytochrome P450 2D6 (Homo sapiens, UniProt P10635);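 note: CYP2D6 member of a cytochrome P450 panel assay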
[16] = Luminescence Cell-Based Dose Confirmation HTS to Identify Activators of 5'UTR Stem-Loop Driven Alpha-Synuclein mRNA Translation in H4 Neuroglioblastoma Cells. [Related pubchem assays: 1829 (Project Summary), 1814 (Primary HTS)]; format: functional
[17] = target: T4, Polyadenylate-binding protein 1 (Homo sapiens, UniProt P11940); experiment: MLLE domain peptide-binding blockers, IC50 – biochemical, fluorescence polarization, FITC-PAM2 peptide, dose response (AID 602259); format: functional; details: read-out: IC50_Mean
[18] = test system: H4; experiment: Luminescence Cell-Based Dose Response HTS to Identify Activators of 5'UTR Stem-Loop Driven Prion Protein mRNA Translation in H4 Neuroglioblastoma Cells. [Related pubchem assays: 1829 (Project Summary), 1814 (Primary HTS)]; format: functional; details: Homo sapiens
[19] = Luminescence Cell-Based Dose Response HTS to Identify Activators of Luciferase Translation or Activity in H4 […] Cells. [Related pubchem assays: 1829 (Project Summary), 1814 (Primary HTS)]; format: functional
[20] = target: T4, Polyadenylate-binding protein 1; experiment: MLLE binding blockers, Cy5 peptide tracer – biochemical, fluorescence polarization, Cy5-PAM2 peptide, secondary, miRNA deadenylation inhibitor project, dose response (AID 602260); format: functional; details: read-out: IC50_Mean
[21] = microbe, parasite or virus in culture; format: functional; details: Mycobacterium tuberculosis
[22] = test system: Streptococcus; experiment: GAS UMAA2166 growth inhibition – luminescence, BacTiterGlo, counter-screen for streptokinase expression inhibitor project, dose response (AID 1915); format: functional, organism-based;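 note: potency for reduction of bacterial viability or growth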
[23] = target: Cytochrome P450 2C19 (Homo sapiens, UniProt P33261); experiment: Cytochrome panel assay with activity outcomes. Panel member name: p450-cyp2c19 Compounds with AC50 equal or less than 10 uM are considered active; format: functional; details: read-out: AC50
[24] = target: T5, Streptokinase A (Streptococcus pyogenes serotype M1, UniProt P10520); experiment: viability-normalized secreted streptokinase activity reduction – plasminogen activation absorbance, OD405, dose response (AID 1914); format: functional, Streptococcus pyogenes M1 GAS;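 note: secreted streptokinase activity via plasminogen activation per viability signal from cell pellet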
T5 sequence (P10520 whole entry): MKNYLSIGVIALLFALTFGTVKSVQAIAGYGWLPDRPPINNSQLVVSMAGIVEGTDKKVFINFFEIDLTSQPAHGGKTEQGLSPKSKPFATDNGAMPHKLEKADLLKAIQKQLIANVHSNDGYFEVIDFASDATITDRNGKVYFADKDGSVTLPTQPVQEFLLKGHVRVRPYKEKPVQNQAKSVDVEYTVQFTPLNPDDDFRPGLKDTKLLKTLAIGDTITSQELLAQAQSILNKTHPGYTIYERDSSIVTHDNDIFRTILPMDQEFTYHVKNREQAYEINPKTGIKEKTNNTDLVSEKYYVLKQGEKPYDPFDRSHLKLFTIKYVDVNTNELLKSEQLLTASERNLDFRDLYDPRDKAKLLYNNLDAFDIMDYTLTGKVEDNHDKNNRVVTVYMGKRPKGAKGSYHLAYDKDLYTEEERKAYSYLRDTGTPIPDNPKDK

[25] = test system: Streptococcus sp. 'group A'; experiment: Streptococcus pyogenes SK(-)GAS viability under kanamycin – luminescence, BacTiterGlo, confirmation, counter-screen for streptokinase expression inhibitor project, dose response (AID 1900); format: functional, organism-based
[26] = HPDE-C7 pancreatic duct cell viability loss – fluorescence, HTS (AID 430); format: functional, cell-based; details: Homo sapiens
[27] = viability of PTEN-deleted HCT116 cells – cell-based, HCT116 PTEN knockout, dose response (AID 1047); format: functional;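 note: HCT116 colon tumor cells with PTEN knocked out; cells exposed to compound for 60 hours before readout; potency for loss of cell viability measured by luminescence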
[28] = viability loss of HPDE-C7K cells – cell-based, fluorescence, HTS, primary screen (AID 431); format: functional; details: Homo sapiens
[29] = viability of HCT116 lacking mutant beta-catenin – cell-based, human colon tumor, dose response (AID 1045); format: functional;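 note: HCT116 colon tumor cells with beta catenin knocked out; cells exposed to compound for 60 hours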
[30] = target: Fatty acid synthase (Homo sapiens, UniProt P49327); experiment: inhibition of human FAS-TE enzyme activity – biochemical, kinetic fluorescence intensity, dose response (AID 624326); format: functional;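 note: rate of fluorescence rise from hydrolysis of a fluorogenic O-methyl fluorescein ester substrate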
[31] = HEK-293T viability loss after treatment – luminescence, T-cell screen hits, cytotoxicity control for TCR NF-kB inhibitor project, dose response (AID 489026); format: functional, cell-based;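 note: cells exposed to compound about 14 hours before the viability readout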

Sequence of Voltage-dependent T-type calcium channel subunit alpha-1H (O95180 whole entry): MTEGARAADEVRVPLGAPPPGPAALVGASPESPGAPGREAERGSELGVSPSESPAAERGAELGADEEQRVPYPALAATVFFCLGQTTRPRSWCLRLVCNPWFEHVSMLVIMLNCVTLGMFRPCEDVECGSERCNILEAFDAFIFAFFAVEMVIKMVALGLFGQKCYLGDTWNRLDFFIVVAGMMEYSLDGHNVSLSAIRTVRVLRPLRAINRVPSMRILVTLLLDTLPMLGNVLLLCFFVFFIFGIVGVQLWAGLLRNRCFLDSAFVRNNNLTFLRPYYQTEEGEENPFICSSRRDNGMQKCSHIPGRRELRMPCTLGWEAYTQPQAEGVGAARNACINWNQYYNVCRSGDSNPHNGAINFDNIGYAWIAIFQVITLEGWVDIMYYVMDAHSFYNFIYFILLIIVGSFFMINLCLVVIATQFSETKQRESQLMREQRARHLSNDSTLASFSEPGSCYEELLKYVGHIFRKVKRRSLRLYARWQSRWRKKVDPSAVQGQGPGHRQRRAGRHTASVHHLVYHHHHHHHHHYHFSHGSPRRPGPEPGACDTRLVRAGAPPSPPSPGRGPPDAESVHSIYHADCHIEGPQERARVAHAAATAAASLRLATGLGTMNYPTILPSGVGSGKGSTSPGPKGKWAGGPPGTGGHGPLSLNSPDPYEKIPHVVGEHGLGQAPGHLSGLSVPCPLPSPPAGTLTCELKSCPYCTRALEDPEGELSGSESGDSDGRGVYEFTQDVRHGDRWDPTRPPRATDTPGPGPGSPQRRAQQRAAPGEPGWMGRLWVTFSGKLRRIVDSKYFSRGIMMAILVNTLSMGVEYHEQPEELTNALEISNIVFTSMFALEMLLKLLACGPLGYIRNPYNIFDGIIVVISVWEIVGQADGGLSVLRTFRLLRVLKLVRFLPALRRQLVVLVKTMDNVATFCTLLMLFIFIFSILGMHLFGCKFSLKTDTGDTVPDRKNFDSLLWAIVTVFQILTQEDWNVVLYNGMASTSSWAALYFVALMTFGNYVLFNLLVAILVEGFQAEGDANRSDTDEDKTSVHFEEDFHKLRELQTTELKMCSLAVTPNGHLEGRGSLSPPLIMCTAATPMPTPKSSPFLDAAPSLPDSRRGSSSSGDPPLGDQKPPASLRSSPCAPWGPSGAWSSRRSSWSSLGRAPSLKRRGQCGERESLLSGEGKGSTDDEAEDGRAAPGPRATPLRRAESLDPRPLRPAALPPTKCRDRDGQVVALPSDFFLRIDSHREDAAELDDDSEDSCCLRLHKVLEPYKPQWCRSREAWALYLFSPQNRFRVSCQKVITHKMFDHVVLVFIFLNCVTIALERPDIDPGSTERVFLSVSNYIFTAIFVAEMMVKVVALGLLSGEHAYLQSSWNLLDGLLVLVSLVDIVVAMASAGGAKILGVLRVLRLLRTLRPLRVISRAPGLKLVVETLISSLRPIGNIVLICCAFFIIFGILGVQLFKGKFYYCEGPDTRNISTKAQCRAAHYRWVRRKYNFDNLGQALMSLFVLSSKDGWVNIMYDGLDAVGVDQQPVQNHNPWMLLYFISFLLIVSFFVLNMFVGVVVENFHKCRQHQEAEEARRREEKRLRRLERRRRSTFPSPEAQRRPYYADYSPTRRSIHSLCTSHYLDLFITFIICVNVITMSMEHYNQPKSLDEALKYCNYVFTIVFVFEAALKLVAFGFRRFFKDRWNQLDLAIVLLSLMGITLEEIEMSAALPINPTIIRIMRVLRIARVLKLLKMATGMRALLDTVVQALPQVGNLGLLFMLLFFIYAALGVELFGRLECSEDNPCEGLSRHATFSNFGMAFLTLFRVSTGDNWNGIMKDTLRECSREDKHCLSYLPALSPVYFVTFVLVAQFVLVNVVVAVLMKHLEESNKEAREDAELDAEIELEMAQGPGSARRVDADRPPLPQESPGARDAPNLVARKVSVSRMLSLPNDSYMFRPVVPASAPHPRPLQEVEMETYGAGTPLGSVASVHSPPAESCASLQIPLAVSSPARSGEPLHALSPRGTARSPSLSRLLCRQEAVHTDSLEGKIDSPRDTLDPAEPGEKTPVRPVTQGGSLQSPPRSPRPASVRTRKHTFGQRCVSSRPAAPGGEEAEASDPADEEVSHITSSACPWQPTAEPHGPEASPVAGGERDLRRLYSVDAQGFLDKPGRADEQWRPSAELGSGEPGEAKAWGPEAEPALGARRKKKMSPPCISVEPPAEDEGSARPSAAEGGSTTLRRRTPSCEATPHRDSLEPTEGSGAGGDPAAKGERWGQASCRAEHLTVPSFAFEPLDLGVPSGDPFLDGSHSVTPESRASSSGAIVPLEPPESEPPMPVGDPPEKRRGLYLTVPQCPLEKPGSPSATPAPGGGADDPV
Sequence of Cytochrome P450 2C9 (P11712 whole entry): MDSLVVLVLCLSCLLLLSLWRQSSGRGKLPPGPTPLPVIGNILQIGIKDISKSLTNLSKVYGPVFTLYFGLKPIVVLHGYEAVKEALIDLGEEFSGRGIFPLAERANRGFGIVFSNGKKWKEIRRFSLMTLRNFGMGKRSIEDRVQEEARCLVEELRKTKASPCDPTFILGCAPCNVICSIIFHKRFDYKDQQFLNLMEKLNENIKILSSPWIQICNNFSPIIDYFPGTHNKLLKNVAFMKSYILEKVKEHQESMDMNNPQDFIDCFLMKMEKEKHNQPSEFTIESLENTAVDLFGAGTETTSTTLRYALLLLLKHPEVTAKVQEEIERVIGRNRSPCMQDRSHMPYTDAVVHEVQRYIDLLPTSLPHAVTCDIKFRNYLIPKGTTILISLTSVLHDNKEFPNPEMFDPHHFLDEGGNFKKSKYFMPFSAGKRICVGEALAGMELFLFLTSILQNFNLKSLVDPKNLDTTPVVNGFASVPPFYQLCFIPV
Sequence of Genome polyprotein (P29990 2492-3391 limits assumed): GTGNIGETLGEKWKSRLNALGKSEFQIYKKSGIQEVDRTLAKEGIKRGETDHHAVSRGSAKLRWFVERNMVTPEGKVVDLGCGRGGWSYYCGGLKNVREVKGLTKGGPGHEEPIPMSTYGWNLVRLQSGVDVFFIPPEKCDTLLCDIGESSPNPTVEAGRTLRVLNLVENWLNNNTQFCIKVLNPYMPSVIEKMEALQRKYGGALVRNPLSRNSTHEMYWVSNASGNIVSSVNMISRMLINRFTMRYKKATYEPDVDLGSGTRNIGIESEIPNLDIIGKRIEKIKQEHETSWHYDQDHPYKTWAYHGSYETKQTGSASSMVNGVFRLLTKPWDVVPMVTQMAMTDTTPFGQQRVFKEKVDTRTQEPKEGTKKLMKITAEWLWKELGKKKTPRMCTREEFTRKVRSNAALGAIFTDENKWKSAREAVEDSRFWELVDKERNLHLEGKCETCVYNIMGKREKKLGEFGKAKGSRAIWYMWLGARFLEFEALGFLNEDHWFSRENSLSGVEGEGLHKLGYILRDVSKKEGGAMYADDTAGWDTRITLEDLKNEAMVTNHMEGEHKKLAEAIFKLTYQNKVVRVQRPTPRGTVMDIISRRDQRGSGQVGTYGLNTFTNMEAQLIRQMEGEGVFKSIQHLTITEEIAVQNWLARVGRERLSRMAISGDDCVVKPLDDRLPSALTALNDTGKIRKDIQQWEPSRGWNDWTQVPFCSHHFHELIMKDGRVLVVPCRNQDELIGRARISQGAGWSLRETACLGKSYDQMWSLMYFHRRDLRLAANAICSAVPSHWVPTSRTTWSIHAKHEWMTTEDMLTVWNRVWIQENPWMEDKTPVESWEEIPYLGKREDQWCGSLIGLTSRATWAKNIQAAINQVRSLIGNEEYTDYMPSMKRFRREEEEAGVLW
Sequence of Induced myeloid leukemia cell differentiation protein Mcl-1 (Q07820 whole entry): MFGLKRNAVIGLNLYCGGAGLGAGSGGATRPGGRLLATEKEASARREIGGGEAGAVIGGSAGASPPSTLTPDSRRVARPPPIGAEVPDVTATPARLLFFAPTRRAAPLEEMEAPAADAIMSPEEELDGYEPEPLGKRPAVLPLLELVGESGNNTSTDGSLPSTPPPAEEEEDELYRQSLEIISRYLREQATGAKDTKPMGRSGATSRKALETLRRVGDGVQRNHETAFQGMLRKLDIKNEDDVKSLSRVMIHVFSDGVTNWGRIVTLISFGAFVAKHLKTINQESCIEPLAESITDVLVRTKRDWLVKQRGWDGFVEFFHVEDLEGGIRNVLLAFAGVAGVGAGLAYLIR
T4 sequence (P11940 whole entry, the tested form may be a part): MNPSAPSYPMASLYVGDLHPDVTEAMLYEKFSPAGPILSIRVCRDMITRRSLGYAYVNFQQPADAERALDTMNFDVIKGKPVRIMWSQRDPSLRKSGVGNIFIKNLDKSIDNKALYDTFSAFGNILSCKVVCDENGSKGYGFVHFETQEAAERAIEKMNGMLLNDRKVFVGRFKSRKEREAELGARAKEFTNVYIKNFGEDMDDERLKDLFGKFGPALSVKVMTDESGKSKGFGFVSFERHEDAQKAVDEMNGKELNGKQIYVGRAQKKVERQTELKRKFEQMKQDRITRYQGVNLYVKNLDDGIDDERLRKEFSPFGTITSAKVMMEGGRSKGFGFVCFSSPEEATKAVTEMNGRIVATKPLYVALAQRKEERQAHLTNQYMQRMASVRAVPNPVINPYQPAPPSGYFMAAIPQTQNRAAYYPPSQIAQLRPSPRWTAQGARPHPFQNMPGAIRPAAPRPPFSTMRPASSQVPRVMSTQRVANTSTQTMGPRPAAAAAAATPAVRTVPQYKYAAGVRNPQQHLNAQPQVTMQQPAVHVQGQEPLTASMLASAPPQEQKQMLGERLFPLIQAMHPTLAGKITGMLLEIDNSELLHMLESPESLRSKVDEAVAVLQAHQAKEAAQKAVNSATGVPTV

## O=C(Nc1ccc2c(c1)CCC2)c1cccc(S(=O)(=O)N2CCN(c3ccccc3)CC2)c1
[1]
  EC50: 6.08 µM (active)

## CC(C)(C)C1CCc2c(sc(NC(=O)C3CC=CCC3C(=O)O)c2C#N)C1 (stereo not given)
[2]
  IC50: 11 µM (active)
[3]
  IC50: 39.4 µM (active)

## NNS(=O)(=O)c1ccc(N2CCCC2=O)c([N+](=O)[O-])c1
[4]
  EC50: > 99 µM (inactive)
[5]
  EC50: 82 µM (inactive)

## Cc1ccc(-c2nc3ccccn3c2NCc2ccc3c(c2)OCO3)cc1
[1]
  EC50: 12.8 µM (active)

## COc1cc(-c2nnc(SCC3(c4ccccc4)OCCO3)o2)cc(OC)c1OC
[6]
  AC50: inconclusive

## CC(=O)Nc1sc(N/N=C/c2ccc(O)cc2)nc1-c1ccc(C)cc1
[7]
  IC50: 2.84 µM (active)

## CC(C)Oc1ccc(CNC(=O)CC(c2ccccc2)c2cc(Cl)ccc2O)cc1 (stereo not given)
[8]
  EC50: 2.17 µM (active)
[9]
  EC50: > 30 µM (not active)
[10]
  AC50: 28.2 µM (inconclusive)
[11]
  AC50: 5.73 µM (active)
[12]
  AC50: 28 µM (active)
[13]
  AC50: 26.7 µM (active)

## COc1cc(N)c(Cl)cc1C(=O)NC1CCN(Cc2ccccc2)CC1 [CLEBOPRIDE]
[6]
  AC50: inconclusive
[10]
  AC50: 12.6 µM (inconclusive)
[14]
  AC50: 3.16 µM (inconclusive)

## Cc1ccc(S(=O)(=O)N(CC(=O)N/N=C\c2cccs2)c2cccc3cccnc23)cc1
[4]
  EC50: > 99 µM (inactive)
[5]
  EC50: > 99 µM (inactive)

## CS(=O)(=O)Nc1cccc(-c2cc(NCc3cccs3)ncn2)c1
[6]
  AC50: inconclusive
[15]
  AC50: 20 µM (inconclusive)

## CN(CCOc1ccc(Cl)cc1)c1ccc(S(=O)(=O)N2CCCCC2)cn1
[1]
  EC50: 2.82 µM (active)

## COc1ccc(C2CC(c3cccs3)=Nc3ccccc3S2)cc1 (stereo not given)
[16]
  EC50: 7.19 µM (active)
[17]
  IC50: > 66 µM (inactive)
[18]
  EC50: 7.12 µM (active)
[19]
  EC50: 9.21 µM (active)
[20]
  IC50: > 66 µM (inactive)
[21]
  CC50: > 40 µM (active)

## CCNc1nc(Oc2c(Cl)cccc2Cl)cc(C(F)(F)F)n1
[6]
  AC50: inconclusive
[10]
  AC50: 14.1 µM (inconclusive)
[22]
  EC50: > 150 µM (not active)
[23]
  AC50: 2 µM (inconclusive)
[11]
  AC50: 8.17 µM (active)
[24]
  EC50: 17.6 µM (active)
[25]
  EC50: 7.68 µM (active)

## Cc1nc2ccc(C(=O)OCc3ccccc3Br)cc2nc1C
[4]
  EC50: > 99 µM (inactive)
[16]
  EC50: 10.8 µM (active)
[5]
  EC50: > 99 µM (inactive)
[18]
  EC50: 0.281 µM (active)
[19]
  EC50: 66.7 µM (active)

## CCC(Sc1nc2cc3c(cc2c(=O)n1Cc1ccco1)OCO3)C(=O)Nc1cccc(OC)c1 (stereo not given)
[26]
  EC50: 4.41 µM (active)
[10]
  AC50: 4.47 µM (inconclusive)
[27]
  EC50: 3.73 µM (active)
[28]
  EC50: 4.17 µM (active)
[29]
  EC50: 3.68 µM (active)

## CCCC1(CCC)C(=O)N=C(NCc2ccccc2)NC1=O
[26]
  EC50: 14.4 µM (active)
[28]
  EC50: 13.4 µM (active)

## CC(C)(C)OC(=O)NCCCC[C@H](NC(=O)c1[nH]cnc1C(=O)NC1CCN(C(=O)OC(C)(C)C)CC1)C(=O)OC(C)(C)C
[30]
  IC50: 1.6 µM (active)

## CC1CCCCC12NC(=O)N(CC(=O)Nc1sc3c(c1C(N)=O)CCC3)C2=O (stereo not given)
[7]
  IC50: 3.5 µM (active)

## O=C1c2ccccc2C(Nc2ccc(F)c(Cl)c2)N1Cc1ccco1 (stereo not given)
[1]
  EC50: 3.88 µM (active)

## COc1ccc2c(c1O)-c1c(OC)c(OC)cc3c1[C@H](C2)N(C)CC3 [ISOCORYDINE]
[6]
  AC50: inconclusive
[10]
  AC50: 10 µM (inconclusive)

## Nc1scc2c(C(=O)O)nn(-c3ccccc3)c(=O)c12
[3]
  IC50: 45 µM (active)

## Cc1cccc(COCC(Cc2ccccc2)N2CCN(C(=O)c3cc(Cl)cc(Cl)c3)CCC2=O)c1 (stereo not given)
[1]
  EC50: 3.04 µM (active)

## Cc1cccc(OCCNC(=O)c2ccc(Cl)c(S(=O)(=O)NCc3cccnc3)c2)c1
[31]
  IC50: > 80 µM (inactive)
